Laboratory results published in patent US20050170022A1, “Extracts of blueberries with anti-oxidant and anti-cancer properties” (priority 2001, published 2005).

How the values were obtained:
HL-60 cells = test: Cytotoxicity in human leukemia cells (HL-60), tritiated thymidine uptake; type: cell-based; details: for IC50, inhibition of DNA synthesis (tritiated thymidine uptake): 90 minutes at 37 C
Experimental: The structure and identification of the seven isolated compounds was then determined using NMR. […] Verification after NMR was made by comparing mass spectra with the literature and by comparing the spectra with authentic compounds using thin layer chromatography. […] Using a well-established screening assay for cytotoxicity, the compounds were tested in a human leukemia cell line (HL-60) for their ability to inhibit growth of these cells in culture. This assay is routinely used by those of skill to determine the potential anti-carcinogenic activity of chemicals where anti-carcinogenic activity is correlated with growth inhibitory activity in HL-60 cells. Uptake of tritiated thymidine into cells, a measure of the level of DNA synthesis and thus cell growth, was determined in the cells both with and without the presence of each of the seven blueberry extract compounds.
HL-60 cells were cultivated in 1.62% RPMI 1640 medium supplemented with 10% fetal calf serum and 1% penicillin-streptomycin. The concentration of the cells in the medium was kept between 2 and 10×10^5 counts/ml. Cell concentrations were counted at the beginning of each experiment with a microscope. Cells were washed without antibiotics and collected by centrifugation. The cells were then diluted to 3×10^5 counts/ml with cold medium without antibiotics. Tritiated thymidine was mixed into the cold medium at a concentration of 150 Ci/mmol. The samples to be tested were dissolved in DMSO at concentrations between 0.1 g/L and 50 ug/L. A 2 microliter sample of each concentration was added to 6 ml tubes, using triplicate tubes for reproducibility. A 1 ml sample of the HL-60 cell culture was added to each tube, […]. The tubes were incubated at 37 C for 90 minutes and then cooled over ice. Cold PBS was added to each tube and they were centrifuged at 1000 rpm for 5 minutes. The supernatant was discarded and distilled water mixed with the cells. Free and bound tritiated thymidine levels were measured by scintillation counting.

[1] = Rancimat test, oxidative stability of lard; details: for Induction Time / Anti-oxidant Index: lard samples; for Anti-oxidant Index: lard negative control = 1.00
Experimental: The potential anti-oxidative properties of the seven compounds was also tested. Experiments were performed using the Rancimat method, a common method for measurement of anti-oxidant activity of both synthetic and natural anti-oxidants. The method is based on measuring changes in electrical conductivity of water caused by the formation of short-chain compounds when fats and oils are oxidized under elevated temperature and accelerated aeration. Using lard samples, the effects of each of the seven compounds on the oxidative stability of lard was determined. The anti-oxidative activity levels of the compounds isolated from blueberry are shown below in Table 1. The levels of anti-oxidant activity can be compared with a known anti-oxidant compound BHT.

[2] = system: human colon (HCT-8) tumor cells; details: cited from earlier work

Row | Compound | inhibition of DNA synthesis / cell growth in HL-60 cells (in words) (HL-60 cells) | IC50, inhibition of DNA synthesis (tritiated thymidine uptake) (HL-60 cells) [ppm] | Induction Time [1] [h] | Anti-oxidant Index [1] | oxidation-inhibition activity (in words) [1] | cytotoxicity (in words) [2]
1 | C[C@@H]1CC[C@]2(C(=O)O)CC[C@]3(C)C(=CC[C@@H]4[C@@]5(C)CC[C@H](O)C(C)(C)[C@@H]5CC[C@]43C)[C@@H]2[C@]1(C)O [3β,19α-Dihydroxy-urs-12-en-28-oic Acid, 3β,19α-dihydroxy-urs-12-en-28-oic acid] | effectively inhibit DNA synthesis | 1 | 2.2 | 1.05 | – | –
2 | O=Cc1ccc(CO)o1 [5-Hydroxymethyl-2-furfural, 5-hydroxymethyl-2-furfural] | – | – | 2.1 | 1.00 | – | –
3 | Cc1cc(C(C)(C)C)c(O)c(C(C)(C)C)c1 [BHT, reference compound] | – | – | 5.8 | 2.76 | – | –
4 | O=C(O)c1cc(O)c(O)c(O)c1 [Gallic Acid, gallic acid] | – | – | 28.1 | 13.38 | high oxidation-inhibition activity | –
5 | O=C(O)c1ccc(O)c(O)c1 [Protocatechuic Acid, protocatechuic acid] | – | – | 18.5 | 8.81 | high oxidation-inhibition activity | –
6 | CC[C@H](CC[C@@H](C)[C@H]1CC[C@H]2[C@@H]3CC=C4C[C@@H](O[C@@H]5O[C@H](CO)[C@@H](O)[C@H](O)[C@H]5O)CC[C@]4(C)[C@H]3CC[C@]12C)C(C)C [Sitosterol-β-D-glucoside, sitosterol-β-D-glucoside] | – | – | 2.4 | 1.14 | – | –
7 | COc1cc(C(=O)O)cc(OC)c1O [Syringic Acid, syringic acid] | – | – | 3.1 | 1.48 | – | –
8 | C[C@H]1[C@H](C)CC[C@]2(C(=O)O)CC[C@]3(C)C(=CC[C@@H]4[C@@]5(C)CC[C@H](O)C(C)(C)[C@@H]5CC[C@]43C)[C@H]12 [Urosolic Acid, urosolic acid] | effectively inhibit DNA synthesis | 1.5 | 2.2 | – | – | marginal cytotoxicity
